According to ChEMBL document CHEMBL4184177, “Synthesis and bioevaluation study of novel N-methylpicolinamide and thienopyrimidine derivatives as selectivity c-Met kinase inhibitors” (Bioorg Med Chem, 2018):

How the values were obtained:
HepG2 = assay: cells; conditions: Homo sapiens, HepG2, 72 h
Description: Cytotoxicity against human HepG2 cells after 72 hrs by MTT assay

A549 = assay: Cytotoxicity against human A549 cells after 72 hrs by MTT assay; conditions: A549, 72 h
MCF7 = assay: cells; conditions: Homo sapiens, MCF7, 72 h
Description: Cytotoxicity against human MCF7 cells after 72 hrs by MTT assay

[1] = target: Hepatocyte growth factor receptor (Homo sapiens, UniProt P08581); assay: Inhibition of c-Met (unknown origin) using FAM-labeled peptide substrate after 10 mins by mobility shift assay
Chain of Hepatocyte growth factor receptor (P08581 whole entry): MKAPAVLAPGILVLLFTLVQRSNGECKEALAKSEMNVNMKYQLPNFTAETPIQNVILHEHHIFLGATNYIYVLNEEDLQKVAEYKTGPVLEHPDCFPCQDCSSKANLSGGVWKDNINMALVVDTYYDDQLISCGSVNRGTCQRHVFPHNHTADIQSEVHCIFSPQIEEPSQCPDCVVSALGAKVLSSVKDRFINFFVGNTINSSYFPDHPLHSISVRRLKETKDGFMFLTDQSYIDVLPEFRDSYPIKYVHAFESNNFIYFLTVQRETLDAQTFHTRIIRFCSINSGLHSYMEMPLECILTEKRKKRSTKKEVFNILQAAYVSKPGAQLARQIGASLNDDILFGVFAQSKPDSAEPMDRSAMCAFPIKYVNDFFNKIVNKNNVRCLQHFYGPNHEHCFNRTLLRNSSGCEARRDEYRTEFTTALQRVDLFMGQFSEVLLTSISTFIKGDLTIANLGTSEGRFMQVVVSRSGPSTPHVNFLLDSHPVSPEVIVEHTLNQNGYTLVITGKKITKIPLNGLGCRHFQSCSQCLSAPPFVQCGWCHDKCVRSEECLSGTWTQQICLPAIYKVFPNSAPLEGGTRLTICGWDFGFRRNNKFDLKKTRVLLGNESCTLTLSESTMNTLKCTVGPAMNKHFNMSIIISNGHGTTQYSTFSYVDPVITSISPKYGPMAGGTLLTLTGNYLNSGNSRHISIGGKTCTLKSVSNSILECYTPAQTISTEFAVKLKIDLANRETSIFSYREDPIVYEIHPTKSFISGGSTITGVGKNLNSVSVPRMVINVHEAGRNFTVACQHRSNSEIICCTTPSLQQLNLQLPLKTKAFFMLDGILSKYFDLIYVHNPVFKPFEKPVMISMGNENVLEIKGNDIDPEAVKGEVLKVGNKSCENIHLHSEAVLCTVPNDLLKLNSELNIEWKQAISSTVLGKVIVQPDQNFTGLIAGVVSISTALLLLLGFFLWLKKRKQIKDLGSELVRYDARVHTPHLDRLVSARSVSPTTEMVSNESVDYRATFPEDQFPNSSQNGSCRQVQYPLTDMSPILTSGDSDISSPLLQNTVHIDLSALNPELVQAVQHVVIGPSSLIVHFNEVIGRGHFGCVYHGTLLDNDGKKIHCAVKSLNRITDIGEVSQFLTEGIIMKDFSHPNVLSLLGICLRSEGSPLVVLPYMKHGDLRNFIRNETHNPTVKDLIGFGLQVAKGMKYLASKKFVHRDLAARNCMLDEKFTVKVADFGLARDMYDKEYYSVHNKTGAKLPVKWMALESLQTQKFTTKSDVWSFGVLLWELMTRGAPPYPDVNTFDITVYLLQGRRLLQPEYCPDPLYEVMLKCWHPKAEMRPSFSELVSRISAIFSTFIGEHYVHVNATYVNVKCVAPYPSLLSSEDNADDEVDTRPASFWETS

Row | Structure (SMILES) | IC50 (HepG2) [µM] | IC50 (MCF7) [µM] | IC50 [1] [µM] | IC50 (A549) [µM]
1 | Cc1ccc(-n2ccc(=O)c(C(=O)Nc3ccc(Oc4ncnc5ccsc45)c(F)c3)n2)cc1 | 24.2 | 23.2 |  | 11.6
2 | CNC(=O)c1cc(Oc2ccc(NC(=O)c3nn(-c4ccccc4F)c(=O)cc3C)cc2F)ccn1 | > 40 | > 40 |  | > 40
3 | O=C(Nc1ccc(Oc2ncnc3ccsc23)c(F)c1)c1nn(-c2ccc(F)c(Cl)c2)ccc1=O | 10.6 | 6.63 |  | 9.65
4 | CNC(=O)c1cc(Oc2ccc(NC(=O)c3nn(-c4ccccc4C(F)(F)F)c(=O)cc3C)cc2F)ccn1 | > 40 | 35.7 |  | > 40
5 | Cc1cc(=O)n(-c2ccc(Br)cc2F)nc1C(=O)Nc1ccc(Oc2ncnc3ccsc23)c(F)c1 | 3.35 | 1.55 | 0.032 | 2.98
6 | Cc1cc(=O)n(-c2cccc(F)c2)nc1C(=O)Nc1ccc(Oc2ncnc3ccsc23)c(F)c1 | 7.81 | 9.05 |  | 5.22
7 | Cc1ccc(-n2nc(C(=O)Nc3ccc(Oc4ncnc5ccsc45)c(F)c3)c(C)cc2=O)cc1 | 17.2 | 7.25 |  | 5.89
8 | CNC(=O)c1cc(Oc2ccc(NC(=O)c3nn(-c4cccc(F)c4)c(=O)cc3C)cc2F)ccn1 | 10.2 | 6.41 |  | 9.54
9 | CNC(=O)c1cc(Oc2ccc(NC(=O)c3nn(-c4ccccc4OC(F)(F)F)c(=O)cc3C)cc2F)ccn1 | > 40 | > 40 |  | > 40
10 | Cc1cc(=O)n(-c2ccc(Br)cc2F)nc1C(=O)Nc1ccc(Oc2ncnc3sccc23)c(F)c1 | 13.8 | 13.2 |  | 11.5
11 | O=C(Nc1ccc(Oc2ncnc3ccsc23)c(F)c1)c1nn(-c2ccc(F)cc2)ccc1=O | 9.16 | 5.72 |  | 8.23
12 | Cc1ccc(-n2nc(C(=O)Nc3ccc(Oc4ncnc5sccc45)c(F)c3)c(C)cc2=O)cc1 | > 40 | > 40 |  | > 40
13 | Cc1ccc(-n2nc(C(=O)Nc3ccc(Oc4ncnc5sccc45)cc3)c(C)cc2=O)cc1 | > 40 | > 40 |  | > 40
14 | Cc1cc(=O)n(-c2cccc(F)c2)nc1C(=O)Nc1ccc(Oc2ncnc3sccc23)c(F)c1 | 24.4 | 17.3 |  | 19.5
15 | Cc1cc(=O)n(-c2ccc(F)c(F)c2)nc1C(=O)Nc1ccc(Oc2ncnc3ccsc23)c(F)c1 | 6.93 | 6.9 |  | 4.59
16 | Cc1cc(=O)n(-c2ccc(F)c(F)c2)nc1C(=O)Nc1ccc(Oc2ncnc3sccc23)cc1 | 16.8 | 16.1 |  | 13.5
17 | Cc1cc(=O)n(-c2ccccc2OC(F)(F)F)nc1C(=O)Nc1ccc(Oc2ncnc3sccc23)c(F)c1 | > 40 | > 40 |  | > 40
18 | O=C(Nc1ccc(Oc2ncnc3ccsc23)c(F)c1)c1nn(-c2ccc(Br)cc2)ccc1=O | 10.7 | 9.62 |  | 7.84
19 | Cc1cc(=O)n(-c2ccc(F)cc2)nc1C(=O)Nc1ccc(Oc2ncnc3sccc23)cc1 | 6.46 | 21 |  | 7.05
20 | Cc1cc(=O)n(-c2ccc(F)c(F)c2)nc1C(=O)Nc1ccc(Oc2ncnc3sccc23)c(F)c1 | > 40 | 20.6 |  | 15.7
21 | CNC(=O)c1cc(Oc2ccc(NC(=O)c3nn(-c4ccc(Br)cc4F)c(=O)cc3C)cc2F)ccn1 | 2.83 | 9.36 |  | 7.93
22 | O=C(Nc1ccc(Oc2ncnc3ccsc23)c(F)c1)c1nn(-c2ccccc2)ccc1=O | 13.5 | 12.4 |  | 19.7
23 | Cc1cc(=O)n(-c2ccc(F)cc2)nc1C(=O)Nc1ccc(Oc2ncnc3sccc23)c(F)c1 | 12.5 | 12.3 |  | 2.62
24 | CNC(=O)c1cc(Oc2ccc(NC(=O)c3nn(-c4ccc(C)cc4)c(=O)cc3C)cc2F)ccn1 | 10.6 | 8.38 |  | 11.5

The next lines start with results.

Row | IC50 (HepG2) [µM] | IC50 (MCF7) [µM] | IC50 [1] [µM] | Structure (SMILES) | IC50 (A549) [µM]
25 | 9.23 | 5.55 |  | Cc1cc(=O)n(-c2ccccc2C(F)(F)F)nc1C(=O)Nc1ccc(Oc2ncnc3ccsc23)cc1 | 8.85
26 | 10.2 | 6.41 |  | Cc1cc(=O)n(-c2cccc(F)c2)nc1C(=O)Nc1ccc(Oc2ncnc3ccsc23)cc1 | 9.54
27 | 6.3 | 15.2 |  | Cc1cc(=O)n(-c2ccc(Br)cc2F)nc1C(=O)Nc1ccc(Oc2ncnc3sccc23)cc1 | 12.8
28 | 9.38 | 6.02 |  | Cc1cc(=O)n(-c2ccccc2C(F)(F)F)nc1C(=O)Nc1ccc(Oc2ncnc3ccsc23)c(F)c1 | 4.68
29 | 18.5 | 27.2 |  | Cc1cc(=O)n(-c2cccc(F)c2)nc1C(=O)Nc1ccc(Oc2ncnc3sccc23)cc1 | 16.4
30 | 9.23 | 5.55 |  | Cc1cc(=O)n(-c2ccc(F)c(F)c2)nc1C(=O)Nc1ccc(Oc2ncnc3ccsc23)cc1 | 8.18
31 | 2.11 | 4.4 | 0.048 | Cc1cc(=O)n(-c2ccc(F)cc2)nc1C(=O)Nc1ccc(Oc2ncnc3ccsc23)cc1 | 2.36
32 | 25 | 23.8 |  | Cc1ccc(-n2nc(C(=O)Nc3ccc(Oc4ncnc5ccsc45)cc3)c(C)cc2=O)cc1 | 11.5
33 | 14.4 | 11 |  | Cc1cc(=O)n(-c2ccccc2OC(F)(F)F)nc1C(=O)Nc1ccc(Oc2ncnc3sccc23)cc1 | 15.5
34 | 25 | 23.8 |  | Cc1cc(=O)n(-c2ccccc2OC(F)(F)F)nc1C(=O)Nc1ccc(Oc2ncnc3ccsc23)cc1 | 10.1
35 | 17.9 | 11.9 |  | Cc1ccc(-n2nc(C(=O)Nc3ccc(Oc4ncnc5ccsc45)cc3)c(C)cc2=O)c(C)c1 | 16.4
36 | 10.6 | 9.36 |  | Cc1cc(=O)n(-c2ccc(Br)cc2F)nc1C(=O)Nc1ccc(Oc2ncnc3ccsc23)cc1 | 7.93
37 | 14.7 | 13.8 |  | Cc1cc(=O)n(-c2ccccc2C(F)(F)F)nc1C(=O)Nc1ccc(Oc2ncnc3sccc23)c(F)c1 | 16.3
38 | 15.7 | 11.5 |  | Cc1cc(=O)n(-c2ccccc2OC(F)(F)F)nc1C(=O)Nc1ccc(Oc2ncnc3ccsc23)c(F)c1 | 5.72
39 | > 40 | > 40 |  | Cc1cc(=O)n(-c2ccccc2C(F)(F)F)nc1C(=O)Nc1ccc(Oc2ncnc3sccc23)cc1 | 19.9
